Data published in paper PMC9738107, “Targeting of the ELR+CXCL/CXCR1/2 Pathway Is a Relevant Strategy for the Treatment of Paediatric Medulloblastomas” (Cells, 2022).

Legend:
[1] = tested on: HR1 cells; assay: Clonogenic assay; type: cell-based, human
Method: Figure 8 C29 is efficient on radioresistant MB cell lines. (A) Cell death after 48 h of treatment with control (DMSO, CT) or C29 1, 2.5, or 5 µM on radiation-resistant cells (RR) and normal cells (N), n = 3. Statistics were performed using the one-way method ANOVA. * p < 0.05, ** p < 0.01, *** p < 0.001. For this figure, DR1 = D1, DR2 = D2, HR1 = H1, HR2 = H2, and C8D1A = C8. (B) Proliferation of DR1/DR2 (A) and HR1/HR2 (B) radio-resistant cells after 1 µM C29 treatment or control (DMSO), n = 3. (C) Clonogenic assay on DR1, DR2 (n = 3) and HR1, HR2 (n = 3) cells after treatment with control (DMSO) or C29 (1 µM or 2.5 µM). (D) Cell migration through the Boyden chamber of DR1 and DR2 cells specifically attracted by 200 ng/mL CXCL8. Cells were treated with control (DMSO) or C29 (1 and 2.5 µM). Results are expressed as percentage of control (n = 3). Scale = 1000 μm. Statistics were performed using Student t-test for 2 comparisons only or ANOVA test for multiple comparisons. * p < 0.05, ** p < 0.01, *** p < 0.001. […]
each month by using PlasmoTest Kit (#10L07‐MM, InvivoGen, Toulouse, France). […]
(§1) 150 Daoy/DR1/DR2/ ONS ‐ 76 and 300 HD ‐ MB03/HR1/HR2 cells were seeded in trip‐ licate in 6‐well plates in the presence or absence of treatment (1 or 2∙5μM MCK140 or DMSO as control). […] The number of clones was quantified using ImageJ software. […]

[2] = tested on: Daoy cells; assay: Pseudo-vessel formation on Matrigel; type: cell-based, human
Method: (§2) Figure 6 C29 inhibits the formation of pseudo vessel structures. (A) Formation of pseudo-vessels by Daoy cells, ONS-76, and HD-MB03 cultured on Matrigel and treated with Control (DMSO) or C29 (1 or 2.5 µM); n = 3. (B) Number of meshes (geometric units of the net formed by the cells on the matrigel surface) were counted with ImageJ. Statistics were performed using Student t-test for only 2 comparisons or ANOVA test for multiple comparisons. *** p < 0.001, scale = 500 μm. […]
(§3) Pseudo‐vessels formation assays
(§4) The cells were deprived of serum overnight. They were then seeded (75000 Daoy
(§5) with Matrigel Matrix, hESC‐Qualified (VWR). Plates were then incubated at 37 °C, 5%
(§6) CO2 for 24 hours. Representative images were taken with the Evos XL Core Cell Imaging
(§7) System at low magnification (4X). For each image, we determined the number of meshes
(§8) (number of geometric units of the net formed by the cells seeded on the matrigel surface). […]

[3] = tested on: ONS-76 cells; assay: Pseudo-vessel formation on Matrigel; type: cell-based, human
Method: as §2, §3, §4, §5, §6, §7, §8

[4] = tested on: HD-MB03 cells; assay: Pseudo-vessel formation on Matrigel; type: cell-based, human; details: HD-MB03, 1 µM
Method: as §2, §3, §4, §5, §6, §7, §8

[5] = tested on: Primary mouse astrocytes (C8D1A); assay: IC50 on normal cells (XTT / cell death by PI staining); type: cell-based; details: C8-D1A, 48 h of treatment
Description: We then determined the selectivity index (SI), which is the IC50 value for normal cells divided by the IC50 value for tumour cells, to assess the overall toxicity on normal tissues. These IC50 values determined by XTT assays or measurement of cell death by PI staining were nearly equivalent (Figure 3E,F). Primary mouse astrocytes (C8D1A) were selected based on their nervous system lineage. […] The SI was thus 6.44 for Daoy, 2.84 for ONS-76, 10.7 for HD-MB03, and 3.94 for D341Med, indicating selectivity towards tumour cell death at the doses considered. These values are also consistent with those determined for renal cancer cells. […]
1500 Daoy, ONS ‐76, HD ‐MB03 or D341 Med cells were sown in triplicate in plates with six wells and the cells were counted daily for 8 days using a Coulter counter (Ville‐ pinte). The relative number of cells (compared to day 1) was determined daily. […]
Y = Y0 * exp(k * X) (Y= Cell number at day X; Y0= Cell number at day 0 (graphically calculated); X= Day following cell plating (cells plated at X0=0); k= Exponential growth constant rate. Doubling times were compared.
as §1

With `O=C(Nc1cccc(Cl)c1)Nc1nc2ccc([N+](=O)[O-])cc2s1` [C29, 1-(3-chlorophenyl)-3-(6-nitrobenzo[d]thiazol-2-yl) urea] the Clone formation ([1]; HR1, 1 µM) was “reduced the number of clones”, the Clone formation ([1]; HR1, 2.5 µM) was “extinguished them” and the Pseudo-vasculature formation ([2]; 1 µM) was “inhibited this ability”. For the same molecule, the Pseudo-vasculature formation ([2]; 2.5 µM) was “inhibited this ability”, the Pseudo-vasculature formation ([3]; ONS-76, 1 µM) was “some vascular structures were retained” and the Pseudo-vasculature formation ([3]; ONS-76, 2.5 µM) was “completely lost this ability”. The “Number of meshes (pseudo-vessels)” value [4] was “significantly reduced the number of meshes” and the IC50 [5] was 19.3 µM.
